In patent US20090149496A1, “INHIBITORS OF THE TASK-1 AND TASK-3 ION CHANNEL” (SANOFI-AVENTIS DEUTSCHLAND GMBH, priority 2006, published 2009):

Tests used:
TASK1 (mouse) = molecular target: T1, TASK1 (mouse) (Mus musculus, UniProt O35111); experiment: Activity on the TASK-1 channel in Xenopus oocytes (two-microelectrode voltage clamp), mouse channel; type: cell-based; conditions: mouse TASK-1 expressed in Xenopus oocytes, voltage jumps to 40 mV, pH 7.4, room temperature; read-out: IC50 (μmol) TASK1 (mouse)
T1 construct: expressed in transfected cells; host or cells: Xenopus laevis oocytes injected with in vitro synthesized RNA
T1 sequence (O35111 whole entry): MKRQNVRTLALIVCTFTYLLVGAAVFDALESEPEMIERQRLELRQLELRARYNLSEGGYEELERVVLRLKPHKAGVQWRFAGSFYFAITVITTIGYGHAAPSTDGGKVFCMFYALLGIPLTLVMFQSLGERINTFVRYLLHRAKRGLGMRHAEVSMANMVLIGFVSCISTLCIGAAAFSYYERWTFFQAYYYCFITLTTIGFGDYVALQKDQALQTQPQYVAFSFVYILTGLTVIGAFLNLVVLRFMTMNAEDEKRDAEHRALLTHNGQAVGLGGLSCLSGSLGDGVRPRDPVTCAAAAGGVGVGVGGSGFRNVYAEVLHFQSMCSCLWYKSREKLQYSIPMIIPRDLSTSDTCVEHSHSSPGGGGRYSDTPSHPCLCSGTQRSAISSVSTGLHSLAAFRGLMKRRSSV
Experimental: (§1) A) Determination of the Activity on the TASK-1 Channel in Xenopus Oocytes
(§2) Mouse or human TASK-1 channels were expressed in Xenopus oocytes. For this purpose, oocytes were first isolated from Xenopus levis and defolliculated. Subsequently, TASK-1-encoding RNA synthesized in vitro was injected into these oocytes. After two days of TASK-1 protein expression, TASK-1 currents were measured on the oocytes with the two-microelectrode voltage clamp technique. In this measurement, the TASK-1 channels were generally activated with voltage jumps lasting 250 ms to 40 mV. The bath was flushed with a solution of the following composition: NaCl 96 mM, KCl 2 mM, CaCl2 1.8 mM, MgCl2 1 mM, HEPES 5 mM (titrated to pH 7.4 with NaOH). These experiments were performed at room temperature. For data acquisition and analysis, the following were used: Geneclamp amplifier (Axon Instruments, Foster City, USA) and MacLab D/A converter and software (ADinstruments, Castle Hill, Australia). The inventive substances were tested by adding them to the bath solution in different concentrations. The effects of the substances were calculated as the percentage inhibition of the TASK-1 control current which was obtained when no substance was added to the solution. The data was subsequently fitted to the Hill equation in order to determine the half-maximum inhibitory concentrations (IC50 values) for the particular substances.

respiration in rabbits = experiment: Action on respiration in rabbits (propofol-induced apnea); type: in vivo; conditions: rabbit, 10 mg/kg i.v., propofol 10 mg/kg/min, n = 13
Experimental: D) Investigation of the Action on Respiration in Rabbits
An apnea was induced in the rabbit by infusion of the narcotic propofol, 10 mg/kg/min. The vehicle used for the compound of example 1 (R-enantiomer) was DMSO/PEG (0.2 ml/1.8 ml). The time from the start of propofol infusion up to the apnea was recorded.

TASK1 (human) [1] = molecular target: T2, TASK1 (human) (Homo sapiens, UniProt O14649); experiment: Activity on the TASK-1 channel with the FLIPR technique on CHO cells; type: cell-based; parameters: expressed in transfected cells; host or cells: CHO cells; conditions: inhibition of human TASK-1 current, 10 μmol/l
T2 sequence (O14649 whole entry): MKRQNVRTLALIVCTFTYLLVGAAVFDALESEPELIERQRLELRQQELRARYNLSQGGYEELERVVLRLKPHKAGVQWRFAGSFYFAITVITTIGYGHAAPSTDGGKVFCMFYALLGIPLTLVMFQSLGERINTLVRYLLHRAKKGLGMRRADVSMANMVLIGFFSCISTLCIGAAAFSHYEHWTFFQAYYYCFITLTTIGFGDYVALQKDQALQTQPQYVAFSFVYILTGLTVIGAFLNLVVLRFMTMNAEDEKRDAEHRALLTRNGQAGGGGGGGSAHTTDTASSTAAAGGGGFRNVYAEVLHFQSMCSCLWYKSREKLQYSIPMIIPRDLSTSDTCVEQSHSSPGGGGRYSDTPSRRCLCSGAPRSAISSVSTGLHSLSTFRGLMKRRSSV
Excerpt: B) Determination of the Activity on the TASK-1 Channel with the FLIPR Technique

respiration = experiment: Respiratory minute volume in narcotized rats; type: in vivo, rat
Experimental: (§3) E) Investigation of the Effect on the Electromyographic Activity of the Genioglossus Muscle and the Respiratory Minute Volume in Rats
(§4) The compound of example 1 (R-enantiomer) and of example 2 was investigated for electromyographic activity of the genioglossus muscle and for respiration-stimulating effect on male urethane-chloralose-narcotized, vagotomized rats with a weight of from 250 to 300 g. For this purpose, the genioglossus EMG activity was measured by means of EMG electrodes. The respiration-stimulating effect was investigated by measuring the respiratory minute volume by means of a tracheal cannula. For the investigations, the rats were administered intravenously successively with 1, 3 and 10 mg/kg of the compound of example 1 (R-enantiomer) and of example 2, with glycofurol (50%) as the vehicle, at 15 minute intervals. CO2 was used as the positive control for the stimulation of the genioglossus activity and of the respiratory minute volume.

rats = experiment: Compatibility in rats; type: in vivo, rat; conditions: oral administration of 1000 mg/kg
Excerpt: F) Investigation of Compatibility in Rats

TASK1 (human) [2] = molecular target: T2, TASK1 (human); experiment: Activity on the TASK-1 channel in Xenopus oocytes (two-microelectrode voltage clamp), human channel; type: cell-based; parameters: expressed in transfected cells; host or cells: Xenopus laevis oocytes injected with in vitro synthesized RNA; conditions: human TASK-1 expressed in Xenopus oocytes, voltage jumps to 40 mV, pH 7.4, room temperature; read-out: IC50 (μmol) TASK1 (human)
Experimental: as §1, §2

human TASK-3 channel = molecular target: T3, human TASK-3 channel (Homo sapiens, UniProt Q9NPC2); experiment: Activity on the TASK-3 channel by patch-clamp on CHO cells; type: cell-based; conditions: whole cell, CHO cells expressing human TASK-3, read-out: IC50 (μmol/l) TASK3 (human)
T3 construct: expressed in transfected cells; host or cells: CHO DHFR-minus cells, clone CHO-244-8-1
T3 sequence (Q9NPC2 whole entry): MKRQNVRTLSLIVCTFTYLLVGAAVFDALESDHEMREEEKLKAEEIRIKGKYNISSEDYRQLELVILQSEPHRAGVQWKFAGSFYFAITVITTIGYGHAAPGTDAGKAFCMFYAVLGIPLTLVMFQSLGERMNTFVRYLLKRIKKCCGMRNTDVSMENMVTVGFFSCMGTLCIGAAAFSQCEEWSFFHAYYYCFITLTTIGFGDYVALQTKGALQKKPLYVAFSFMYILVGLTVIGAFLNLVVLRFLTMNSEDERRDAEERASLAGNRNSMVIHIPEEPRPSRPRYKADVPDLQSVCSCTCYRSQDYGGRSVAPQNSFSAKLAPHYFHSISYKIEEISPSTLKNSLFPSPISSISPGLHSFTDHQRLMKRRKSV
Experimental: C) Determination of the Activity on the TASK-3 Channel by Patch-Clamp Investigations
With the aid of the patch-clamp technique, the inhibition of the human TASK-3 current by the example compounds was measured on CHO cells in which the human TASK-3 channel is expressed. To produce the TASK-3 cell line, the human TASK-3 cDNA (Genbank, Accession Number AF248241) was cloned into the eukaryotic expression vector p658, which bears a DHFR (dihydrofolate reductase) resistance gene [reference: Gene 1994 (149), 341-344, 1994]. CHO (Chinese hamster ovary) DHFR-minus cells were transfected with the TASK-3 expression construct using the Fugene reagent (Roche Biochemicals) according to the manufacturer's instructions. […] Resulting cell clones were analyzed for the expression of TASK-3 with the aid of a fluorescence-based activity assay in a FlexStation (Molecular Devices) and with a membrane potention-sensitive dye (Molecular Devices FMP Dye Kit). […] TASK-3-positive cell clones were subsequently analyzed for resulting potassium currents with the patch-clamp technique. […]
To investigate the substances, the cells were introduced into a measurement chamber which is mounted on an inverted microscope. […] The concentration of the half-maximum inhibition of the current (IC50 value) was determined by fitting the curve to the mathematical Hill equation.
In this analysis, the following IC50 values were determined: […]

genioglossus muscle = experiment: Electromyographic activity of the genioglossus muscle in narcotized rats; type: in vivo, rat
Experimental: as §3, §4

IC50 (TASK1 (mouse)): 150 nM
inhibition at 10 µM (TASK1 (human) [1]): 81%
melting point: 97 °C
IC50 (TASK1 (human) [2]): 100 nM
IC50 (human TASK-3 channel): 1 µmol/L
Compound: CCCCS(=O)(=O)Nc1ccccc1C(=O)N[C@H](CC)c1ccc(OC)nc1 [Example 1 (R-enantiomer), 2-(Butyl-1-sulfonylamino)-N-[1(R)-(6-methoxypyridin-3-yl)propyl]benzamide]
Time from the start of propofol infusion up to the apnea (mean) (respiration in rabbits): 5.63 min
Respiratory minute volume (mean) (respiration; 1 mg/kg intravenously): 246 mL/min
Respiratory minute volume (mean) (respiration; 3 mg/kg intravenously): 317 mL/min
Respiratory minute volume (mean) (respiration; 10 mg/kg intravenously): 375 mL/min
Effect on the respiratory minute volume (in words) (respiration; summary of tables 3 and 5): stimulate
Side-effects (rats): no side-effects were observed
EMG activity of the genioglossus muscle (mean) (genioglossus muscle; 1 mg/kg intravenously): 4.45 arbitrary units
EMG activity of the genioglossus muscle (mean) (genioglossus muscle; 3 mg/kg intravenously): 5.59 arbitrary units
EMG activity of the genioglossus muscle (mean) (genioglossus muscle; 10 mg/kg intravenously): 7.18 arbitrary units
Effect on the electromyographic activity of the genioglossus muscle (in words) (genioglossus muscle; summary of tables 2 and 4): stimulate
